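Briefly, cells in 96-well plates were exposed to five compound concentrations for 48 h, and endpoints were estimated by linear interpolation. TGI denotes the concentration required for complete inhibition of growth.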
How the values were obtained:
Test in all cases: DTP human tumour cell line panel, 48 h
[1] = tested on: HOP-92 NSCLC
[2] = tested on: CAKI-1 renal
[3] = tested on: OVCAR-4 ovarian
[4] = tested on: SW-620 colon
[5] = tested on: T-47D breast
[6] = tested on: SF-268 CNS
[7] = tested on: M14 melanoma
[8] = tested on: SR leukemia
[9] = tested on: CCRF-CEM leukemia
[10] = tested on: SK-MEL-5 melanoma
[11] = tested on: UO-31 renal
[12] = tested on: HCC-2998 colon
[13] = tested on: NCI-H522 lung
[14] = tested on: NCI-H23 lung
[15] = tested on: OVCAR-3 ovarian
[16] = tested on: RPMI-8226 leukemia
[17] = tested on: SN12C renal
[18] = tested on: KM12 colon
[19] = tested on: EKVX NSCLC
[20] = tested on: SF-539 CNS
[21] = tested on: 786-0 renal
[22] = tested on: HCT-116 colon
[23] = tested on: MOLT-4 leukemia
[24] = tested on: SK-OV-3 ovarian
[25] = tested on: OVCAR-5 ovarian
[26] = tested on: OVCAR-8 ovarian
[27] = tested on: SK-MEL-28 melanoma
[28] = tested on: HOP-62 NSCLC
[29] = tested on: K-562 leukemia
[30] = tested on: A549 NSCLC
[31] = tested on: IGROV1 ovarian
[32] = tested on: SNB-19 CNS
[33] = tested on: HCT-15 colon
[34] = tested on: ACHN renal
[35] = tested on: BT-549 breast
[36] = tested on: UACC-257 melanoma
[37] = tested on: TK-10 renal
[38] = tested on: HT29 colon
[39] = tested on: COLO 205 colon
[40] = tested on: U251 CNS
[41] = tested on: MDA-MB-231 breast
[42] = tested on: MDA-MB-435
[43] = tested on: MCF7 breast
[44] = tested on: HL-60(TB) leukemia
[45] = tested on: MALME-3M melanoma
[46] = tested on: DU-145 prostate
[47] = tested on: SK-MEL-2 melanoma
[48] = tested on: NCI/ADR-RES ovarian
[49] = tested on: UACC-62 melanoma
[50] = tested on: SF-295 CNS
[51] = tested on: NCI-H460 lung
[52] = tested on: PC-3 prostate
[53] = tested on: LOX IMVI melanoma

## CC(=O)OCC1OC(n2c(=S)n(-c3ccccc3)c(=O)c3ccccc32)C(OC(C)=O)C(OC(C)=O)C1OC(C)=O (centres undefined)
[1]
  TGI: > 100 µM
[2]
  TGI: > 100 µM
[3]
  TGI: > 100 µM

## CN(C)CCOc1ccc2[nH]c(C(=O)N3CC(CCl)c4ccc(N)cc43)cc2c1 (centres undefined)
[1]
  TGI: 4.18 µM
[4]
  TGI: > 100 µM
[5]
  TGI: > 100 µM
[6]
  TGI: 1.01 µM
[7]
  TGI: 1.39 µM
[8]
  TGI: > 100 µM
[2]
  TGI: > 100 µM
[9]
  TGI: 0.975 µM
[10]
  TGI: 0.261 µM
[11]
  TGI: > 40.7 µM
[12]
  TGI: 0.823 µM
[13]
  TGI: 0.0683 µM
[14]
  TGI: 0.341 µM
[15]
  TGI: 0.653 µM
[16]
  TGI: 1.14 µM
[17]
  TGI: > 22.3 µM
[18]
  TGI: 0.294 µM
[19]
  TGI: 5.92 µM
[20]
  TGI: > 100 µM
[21]
  TGI: 5.48 µM
[22]
  TGI: 12.9 µM
[23]
  TGI: 0.0565 µM
[24]
  TGI: > 100 µM
[25]
  TGI: 18.2 µM
[26]
  TGI: > 35.8 µM
[27]
  TGI: 3.21 µM
[3]
  TGI: 0.46 µM
[28]
  TGI: 0.69 µM
[29]
  TGI: > 100 µM
[30]
  TGI: > 40.3 µM
[31]
  TGI: > 67.6 µM
[32]
  TGI: 21.8 µM
[33]
  TGI: 20.7 µM
[34]
  TGI: 1.07 µM
[35]
  TGI: 0.612 µM

## CC(C)(CO)NC(=O)c1cccs1
[36]
  TGI: > 100 µM
[37]
  TGI: > 100 µM
[38]
  TGI: > 100 µM
[39]
  TGI: > 100 µM
[40]
  TGI: > 100 µM
[1]
  TGI: > 100 µM
[41]
  TGI: > 100 µM
[42]
  TGI: > 100 µM
[4]
  TGI: > 100 µM
[5]
  TGI: > 100 µM
[6]
  TGI: > 100 µM
[43]
  TGI: > 100 µM
[7]
  TGI: > 100 µM
[8]
  TGI: > 100 µM
[44]
  TGI: > 100 µM
[2]
  TGI: > 100 µM
[9]
  TGI: > 100 µM
[45]
  TGI: > 100 µM
[46]
  TGI: > 100 µM
[47]
  TGI: > 100 µM
[10]
  TGI: > 100 µM
[11]
  TGI: > 100 µM
[12]
  TGI: > 100 µM
[13]
  TGI: > 100 µM
[14]
  TGI: > 100 µM
[48]
  TGI: > 100 µM
[49]
  TGI: > 100 µM
[15]
  TGI: > 100 µM
[16]
  TGI: > 100 µM
[17]
  TGI: > 100 µM
[18]
  TGI: > 100 µM
[19]
  TGI: > 100 µM
[21]
  TGI: > 100 µM
[22]
  TGI: > 100 µM
[23]
  TGI: > 100 µM
[24]
  TGI: > 100 µM
[25]
  TGI: > 100 µM
[26]
  TGI: > 100 µM
[27]
  TGI: > 100 µM
[3]
  TGI: > 100 µM
[50]
  TGI: > 100 µM
[28]
  TGI: > 100 µM
[51]
  TGI: > 100 µM
[29]
  TGI: > 100 µM
[30]
  TGI: > 100 µM
[31]
  TGI: > 100 µM
[52]
  TGI: > 100 µM
[32]
  TGI: > 100 µM
[33]
  TGI: > 100 µM
[34]
  TGI: > 100 µM
[53]
  TGI: > 100 µM

Reference: PubChem BioAssay (NCI)
